Results published in patent US20070128217A1 (priority 2003, published 2007).

Experiments:
[1] = test system: antibodies in sera from SARS patients (sera 1a, 1b, 2, 6, 37, 62, London, SARS-yellow, SARS-green); type: binding, human; parameters: Binding of serum 6 to linear peptides of protein X1 of SARS-CoV Urbani / Binding of serum 37 to linear peptides of protein X1 of SARS-CoV Urbani / Binding of serum 6 to looped/cyclic peptide (PEPSCAN-ELISA) / Binding of serum 37 to looped/cyclic peptide (PEPSCAN-ELISA) / Binding of serum 37 to looped/cyclic peptides of protein X1 of SARS-CoV Urbani / Binding of serum 6 to linear peptides of protein X2 / Binding of serum 37 to linear peptides of protein X2 / Binding of serum 37 to looped/cyclic peptides of protein X2 of SARS-CoV Urbani / Binding of serum 6 to linear peptides of protein M of SARS-CoV Urbani / Binding of serum 37 to linear peptides of protein M of SARS-CoV Urbani / Binding of serum 6 to looped/cyclic peptides of protein M of SARS-CoV Urbani / Binding of serum 37 to looped/cyclic peptides of protein M of SARS-CoV Urbani / Binding of serum 6 to linear peptides of protein X3 of SARS-CoV Urbani / Binding of serum 37 to linear peptides of protein X3 of SARS-CoV Urbani / Binding of serum 37 to looped/cyclic peptides of protein X3 of SARS-CoV Urbani / Binding of serum 6 to linear peptides of protein X4 of SARS-CoV Urbani / Binding of serum 37 to linear peptides of protein X4 of SARS-CoV Urbani / Binding of serum 37 to looped/cyclic peptides of protein X4 of SARS-CoV Urbani / Binding of serum 6 to linear peptides of protein X5 of SARS-CoV Urbani / Binding of serum 37 to linear peptides of protein X5 of SARS-CoV Urbani / Binding of serum 37 to looped/cyclic peptides of protein X5 of SARS-CoV Urbani / Binding of serum 6 to linear peptides of protein N of SARS-CoV Urbani / Binding of serum 37 to linear peptides of protein N of SARS-CoV Urbani / Binding of serum 6 to linear peptide (PEPSCAN-ELISA) / Binding of serum 1a to looped/cyclic peptides of protein N of SARS-CoV Urbani / Binding of serum 1b to looped/cyclic peptides of protein N of SARS-CoV Urbani / Binding of serum 2 to looped/cyclic peptides of protein N of SARS-CoV Urbani / Binding of serum 6 to looped/cyclic peptides of protein N of SARS-CoV Urbani / Binding of serum 37 to looped/cyclic peptides of protein N of SARS-CoV Urbani / Binding of serum 62 to looped/cyclic peptides of protein N of SARS-CoV Urbani / Binding of serum London to looped/cyclic peptides of protein N of SARS-CoV Urbani / Binding of serum SARS-green to looped/cyclic peptides of protein N of SARS-CoV Urbani: unit not given here
[2] = test system: control sera (pooled serum of ten healthy LUMC hospital workers; commercial negative donor pooled serum from the Dutch bloodbank); type: binding, human; parameters: Binding of Control serum LUMC to linear peptides / Binding of Control serum Blood-bank to linear peptides / Binding of Control serum LUMC to looped peptides / Binding of Control Serum Blood-Bank to Looped peptides / Binding of Control serum LUMC to linear peptides of the protein M of SARS-CoV Urbani / Binding of Control serum Blood-bank to linear peptides of the protein M of SARS-CoV Urbani / Binding of Control serum LUMC to looped peptides of the protein M of SARS-CoV Urbani / Binding of Control Serum Blood-Bank to Looped peptides of the protein M of SARS-CoV Urbani: unit not given here
[3] = test system: rabbit serum obtained by immunizing a rabbit with the SARS-CoV strain Frankfurt 1; type: binding; parameters: Binding of a rabbit serum to linear peptides / Binding of a rabbit serum to looped peptides / Rabbit serum linear peptides / Rabbit serum looped peptides / Binding of a rabbit serum to linear peptides of protein N of SARS-CoV Urbani (Rabbit serum linear peptides) / Binding of a rabbit serum to looped/cyclic peptides of protein N of SARS-CoV Urbani (Rabbit serum looped peptides): unit not given here

Sequence | Binding of serum 1a to linear peptides of protein M of SARS-CoV Urbani [1] | Binding of serum 1a to looped/cyclic peptides of protein M of SARS-CoV Urbani [1] | Binding of serum 1b to linear peptides of protein M of SARS-CoV Urbani [1] | Binding of serum 1b to looped/cyclic peptides of protein M of SARS-CoV Urbani [1] | Binding of serum 2 to linear peptides of protein M of SARS-CoV Urbani [1] | Binding of serum 2 to looped/cyclic peptides of protein M of SARS-CoV Urbani [1] | Binding of serum 6 to linear peptides of protein M of SARS-CoV Urbani [1] | Binding of serum 6 to looped/cyclic peptides of protein M of SARS-CoV Urbani [1] | Binding of serum 37 to linear peptides of protein M of SARS-CoV Urbani [1] | Binding of serum 37 to looped/cyclic peptides of protein M of SARS-CoV Urbani [1] | Binding of serum 62 to linear peptides of protein M of SARS-CoV Urbani [1] | Binding of serum 62 to looped/cyclic peptides of protein M of SARS-CoV Urbani [1] | Binding of serum London to linear peptides of protein M of SARS-CoV Urbani [1] | Binding of serum London to looped/cyclic peptides of protein M of SARS-CoV Urbani [1] | Binding of serum SARS-green to linear peptides of protein M of SARS-CoV Urbani [1] | Binding of serum SARS-green to looped/cyclic peptides of protein M of SARS-CoV Urbani [1] | Binding of serum SARS-yellow to linear peptides of protein M of SARS-CoV Urbani [1] | Binding of serum SARS-yellow to looped/cyclic peptides of protein M of SARS-CoV Urbani [1] | Binding of Control Serum Blood-Bank to Looped peptides of the protein M of SARS-CoV Urbani [2] | Binding of Control serum Blood-bank to linear peptides of the protein M of SARS-CoV Urbani [2] | further results
LAAVYRINWVTGGIA | 0.7 | 0.8 | 0.5 | 0.2 | 0.6 | 0.5 | 0.3 | 0.7 | 0.8 | 0.5 | 0.9 | 0.5 | 0.3 | 0.2 | 0.3 | 0.3 | 0.1 | 0.3 | 0.4 | 0.6 | Binding of Control serum LUMC to linear peptides of the protein M of SARS-CoV Urbani [2]: 0.5; Binding of Control serum LUMC to looped peptides of the protein M of SARS-CoV Urbani [2]: 0.6; Rabbit serum linear peptides [3]: 0.4; Rabbit serum looped peptides [3]: 0.0
LAWIMLLQFAYSNRN | 0.6 | 0.7 | 0.5 | 0.7 | 0.4 | 0.4 | 0.2 | 0.7 | 0.7 | 0.6 | 0.7 | 0.6 | 0.2 | 0.2 | 0.3 | 0.4 | 0.0 | 0.3 | 0.6 | 0.6 | Binding of Control serum LUMC to linear peptides of the protein M of SARS-CoV Urbani [2]: 0.2; Binding of Control serum LUMC to looped peptides of the protein M of SARS-CoV Urbani [2]: 0.6; Rabbit serum linear peptides [3]: 0.8; Rabbit serum looped peptides [3]: 0.1
